The supplement of paper PMC10307832

Tests used:
Test in all cases: relative viability (nuclei count vs DMSO), 5 days (fraction); higher = more cells survive
LCLC-97TM1 = tested on: LCLC-97TM1
Procedure, shortened: (§1)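 Cells from lung cancer lines were seeded into 1536-well plates and, one day later, dosed by pin tool. Treatments were either a single drug or a fixed dose of an anchor drug with five library-drug doses (not always all listed) in √10 steps. After 5 days, nuclei were stained in a one-step fixation (final 0.05% Triton X-100, 1% formaldehyde, 1 ug/ml Hoechst) and counted on 4× images, and relative viability is the treated-to-vehicle nuclei ratio, as the median of duplicate plates.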

NCI-H661 = tested on: NCI-H661
Procedure, shortened: as §1

NCI-H23 = tested on: NCI-H23
Procedure, shortened: as §1

NCI-H2347 = tested on: NCI-H2347
Procedure, shortened: as §1

COR-L 105 = tested on: COR-L 105
Procedure, shortened: as §1

PC-14 = tested on: PC-14
Procedure, shortened: as §1

HCC-827 = tested on: HCC-827
Procedure, shortened: as §1

NCI-H520 = tested on: NCI-H520
Procedure, shortened: as §1

RERF-LC-KJ = tested on: RERF-LC-KJ
Procedure, shortened: as §1

H3255 = tested on: H3255
Procedure, shortened: as §1

NCI-H1666 = tested on: NCI-H1666
Procedure, shortened: as §1

NCI-H2126 = tested on: NCI-H2126
Procedure, shortened: as §1

NCI-H650 = tested on: NCI-H650
Procedure, shortened: as §1

NCI-H2405 = tested on: NCI-H2405
Procedure, shortened: as §1

ChaGo-K-1 = tested on: ChaGo-K-1
Procedure, shortened: as §1

201T = tested on: 201T
Procedure, shortened: as §1

NCI-H322M = tested on: NCI-H322M
Procedure, shortened: as §1

NCI-H647 = tested on: NCI-H647
Procedure, shortened: as §1

NCI-H2087 = tested on: NCI-H2087
Procedure, shortened: as §1

NCI-H1915 = tested on: NCI-H1915
Procedure, shortened: as §1

LC-2-ad = tested on: LC-2-ad
Procedure, shortened: as §1

EPLC-272H = tested on: EPLC-272H
Procedure, shortened: as §1

CC1(C)CCC(c2ccc(Cl)cc2)=C(CN2CCN(c3ccc(C(=O)NS(=O)(=O)c4ccc(N[C@H](CCN5CCOCC5)CSc5ccccc5)c(S(=O)(=O)C(F)(F)F)c4)cc3)CC2)C1 [Navitoclax] + CCNC(=O)c1noc(-c2cc(C(C)C)c(O)cc2O)c1-c1ccc(CN2CCOCC2)cc1 [Luminespib] (partner 0.01 µM)
relative viability (LCLC-97TM1; first compound 0.005 µM): 0.74 | relative viability (LCLC-97TM1; first compound 0.01581 µM): 0.8 | relative viability (LCLC-97TM1; first compound 0.05 µM): 0.733 | relative viability (LCLC-97TM1; first compound 0.1581 µM): 0.779 | relative viability (LCLC-97TM1; first compound 0.5 µM): 0.857 | relative viability (NCI-H661; first compound 0.005 µM): 0.94 | relative viability (NCI-H661; first compound 0.01581 µM): 0.853 | relative viability (NCI-H661; first compound 0.05 µM): 0.971 | relative viability (NCI-H661; first compound 0.1581 µM): 0.775 | relative viability (NCI-H661; first compound 0.5 µM): 0.884 | relative viability (NCI-H23; first compound 0.005 µM): 0.223 | relative viability (NCI-H23; first compound 0.01581 µM): 0.218 | relative viability (NCI-H23; first compound 0.05 µM): 0.224 | relative viability (NCI-H23; first compound 0.1581 µM): 0.213 | relative viability (NCI-H23; first compound 0.5 µM): 0.209 | relative viability (NCI-H2347; first compound 0.005 µM): 0.467 | relative viability (NCI-H2347; first compound 0.01581 µM): 0.62 | relative viability (NCI-H2347; first compound 0.1581 µM): 0.372 | relative viability (NCI-H2347; first compound 0.5 µM): 0.312 | relative viability (COR-L 105; first compound 0.005 µM): 0.801 | relative viability (COR-L 105; first compound 0.01581 µM): 1.2 | relative viability (COR-L 105; first compound 0.05 µM): 0.974 | relative viability (COR-L 105; first compound 0.1581 µM): 0.701 | relative viability (COR-L 105; first compound 0.5 µM): 0.544 | relative viability (PC-14; first compound 0.005 µM): 0.223 | relative viability (PC-14; first compound 0.01581 µM): 0.154 | relative viability (PC-14; first compound 0.05 µM): 0.23 | relative viability (PC-14; first compound 0.1581 µM): 0.313 | relative viability (PC-14; first compound 0.5 µM): 0.146 | relative viability (HCC-827; first compound 0.005 µM): 0.681 | relative viability (HCC-827; first compound 0.01581 µM): 0.699 | relative viability (HCC-827; first compound 0.05 µM): 0.49 | relative viability (HCC-827; first compound 0.1581 µM): 0.58 | relative viability (HCC-827; first compound 0.5 µM): 0.69 | relative viability (NCI-H520; first compound 0.005 µM): 0.249 | relative viability (NCI-H520; first compound 0.01581 µM): 0.234 | relative viability (NCI-H520; first compound 0.05 µM): 0.268 | relative viability (NCI-H520; first compound 0.1581 µM): 0.235 | relative viability (NCI-H520; first compound 0.5 µM): 0.229 | relative viability (RERF-LC-KJ; first compound 0.005 µM): 1.32 | relative viability (RERF-LC-KJ; first compound 0.01581 µM): 1.23 | relative viability (RERF-LC-KJ; first compound 0.05 µM): 1.17 | relative viability (RERF-LC-KJ; first compound 0.1581 µM): 1.18 | relative viability (RERF-LC-KJ; first compound 0.5 µM): 1.04 | relative viability (H3255; first compound 0.005 µM): 0.874 | relative viability (H3255; first compound 0.01581 µM): 0.877 | relative viability (H3255; first compound 0.05 µM): 0.834 | relative viability (H3255; first compound 0.1581 µM): 0.869 | relative viability (H3255; first compound 0.5 µM): 0.741 | relative viability (NCI-H1666; first compound 0.005 µM): 0.881 | relative viability (NCI-H1666; first compound 0.01581 µM): 0.969 | relative viability (NCI-H1666; first compound 0.05 µM): 0.989 | relative viability (NCI-H1666; first compound 0.1581 µM): 1.05 | relative viability (NCI-H1666; first compound 0.5 µM): 1.05 | relative viability (NCI-H2126; first compound 0.005 µM): 0.906 | relative viability (NCI-H2126; first compound 0.01581 µM): 0.952 | relative viability (NCI-H2126; first compound 0.05 µM): 0.923 | relative viability (NCI-H2126; first compound 0.1581 µM): 0.779 | relative viability (NCI-H2126; first compound 0.5 µM): 0.844 | relative viability (NCI-H650; first compound 0.005 µM): 0.794 | relative viability (NCI-H650; first compound 0.01581 µM): 0.862 | relative viability (NCI-H650; first compound 0.05 µM): 0.682 | relative viability (NCI-H650; first compound 0.1581 µM): 0.786 | relative viability (NCI-H650; first compound 0.5 µM): 0.827 | relative viability (NCI-H2405; first compound 0.005 µM): 0.89 | relative viability (NCI-H2405; first compound 0.01581 µM): 0.727 | relative viability (NCI-H2405; first compound 0.05 µM): 0.755 | relative viability (NCI-H2405; first compound 0.1581 µM): 0.765 | relative viability (NCI-H2405; first compound 0.5 µM): 0.702 | relative viability (ChaGo-K-1; first compound 0.005 µM): 0.708 | relative viability (ChaGo-K-1; first compound 0.01581 µM): 0.593 | relative viability (ChaGo-K-1; first compound 0.05 µM): 0.306 | relative viability (ChaGo-K-1; first compound 0.1581 µM): 0.578 | relative viability (ChaGo-K-1; first compound 0.5 µM): 0.636 | relative viability (201T; first compound 0.005 µM): 1.05 | relative viability (201T; first compound 0.01581 µM): 1.1 | relative viability (201T; first compound 0.05 µM): 0.982 | relative viability (201T; first compound 0.1581 µM): 1.03 | relative viability (201T; first compound 0.5 µM): 1.08 | relative viability (NCI-H322M; first compound 0.005 µM): 0.81 | relative viability (NCI-H322M; first compound 0.01581 µM): 1.12 | relative viability (NCI-H322M; first compound 0.05 µM): 1.07 | relative viability (NCI-H322M; first compound 0.1581 µM): 0.908 | relative viability (NCI-H322M; first compound 0.5 µM): 0.908 | relative viability (NCI-H647; first compound 0.005 µM): 0.271 | relative viability (NCI-H647; first compound 0.01581 µM): 0.215 | relative viability (NCI-H647; first compound 0.05 µM): 0.17 | relative viability (NCI-H647; first compound 0.1581 µM): 0.206 | relative viability (NCI-H647; first compound 0.5 µM): 0.133 | relative viability (NCI-H2087; first compound 0.005 µM): 0.207 | relative viability (NCI-H2087; first compound 0.01581 µM): 0.204 | relative viability (NCI-H2087; first compound 0.1581 µM): 0.153 | relative viability (NCI-H2087; first compound 0.5 µM): 0.208 | relative viability (NCI-H1915; first compound 0.005 µM): 0.749 | relative viability (NCI-H1915; first compound 0.01581 µM): 0.778 | relative viability (NCI-H1915; first compound 0.05 µM): 0.793 | relative viability (NCI-H1915; first compound 0.1581 µM): 0.746 | relative viability (NCI-H1915; first compound 0.5 µM): 0.829 | relative viability (LC-2-ad; first compound 0.005 µM): 0.993 | relative viability (LC-2-ad; first compound 0.01581 µM): 1.16 | relative viability (LC-2-ad; first compound 0.05 µM): 0.912 | relative viability (LC-2-ad; first compound 0.1581 µM): 0.907 | relative viability (LC-2-ad; first compound 0.5 µM): 0.856 | relative viability (EPLC-272H; first compound 0.005 µM): 0.391 | relative viability (EPLC-272H; first compound 0.05 µM): 1 | relative viability (EPLC-272H; first compound 0.1581 µM): 0.647 | relative viability (EPLC-272H; first compound 0.5 µM): 0.133
